From ChEMBL document CHEMBL4680162, “Synthesis and pharmacological evaluation of chlorin derivatives for photodynamic therapy of cholangiocarcinoma” (Eur J Med Chem, 2020)
The source made the active and inactive calls. No cut-off for these calls is given here.

Tests used:
[1] = Phototoxicity in ICR mouse assessed as ear weight at 1 mg/kg, iv followed by 10 mW/cm2 light irradiation for 10 mins at 1 day after drug challenge and measured after 1 day of light irradiation by H and E staining based microscopic analysis (reference value: 12.4 +/- 1.5 mg); assay type: organism-based; settings: in vivo, 48 h, time 2 day
[2] = Induction of apoptosis in human QBC939 cells assessed as viable cells at 2 uM by annexin V-FITC and propidium iodide staining based flow cytometric analysis (reference value: 99.99 %); assay type: functional; settings: read-out: Activity
[3] = Photodynamic antitumor activity against human QBC939 cells xenografted in BALB/c nude mouse assessed as tumor weight at 1 mg/kg, iv followed by laser light irradiation at 120 J/cm2 measured after 13 days; assay type: functional; settings: time 13 day
[4] = Phototoxicity in ICR mouse assessed as back skin weight at 1 mg/kg, iv followed by 10 mW/cm2 light irradiation for 10 mins at 1 day after drug challenge and measured after 1 day of light irradiation by H and E staining based microscopic analysis (reference value: 34.3 +/- 2.1 mg); assay type: organism-based; settings: in vivo, 48 h, time 2 day
[5] = Drug localization in lysosome of human QBC939 cells at 4 uM incubated for 4 hrs in dark by lyso-tracker blue based confocal microscopic method; assay type: ADME, subcellular; settings: qbc939, 4 h
[6] = Induction of apoptosis in human QBC939 cells assessed as late apoptotic cells at 2 uM by annexin V-FITC and propidium iodide staining based flow cytometric analysis; assay type: functional
[7] = Induction of singlet oxygen generation in DMSO assessed as bleaching rate at 10 uM under 650 nanometer light irradiation; assay type: functional
[8] = Emission property of compound in DMSO assessed as Q band emission wavelength by […]; assay type: physicochemical
[9] = Absorption property of compound in poly-oxyethylene castor oil and PBS assessed as Q band log absorption coefficient by UV-visible spectrophotometric method; assay type: physicochemical; settings: buffer
[10] = Phototoxicity in ICR mouse assessed as tail weight at 1 mg/kg, iv followed by 10 mW/cm2 light irradiation for 10 mins at 1 day after drug challenge and measured after 1 day of light irradiation by H and E staining based microscopic analysis (reference value: 115.6 +/- 5.6 mg); assay type: organism-based; settings: in vivo, 48 h, time 2 day
[11] = system: QBC939; assay: Photodynamic antitumour activity against human QBC939 cells xenografted in BABL/c nude mouse assessed as increase in apoptotic cells at 1 mg/kg, iv measured after 1 day of light irradiation by TUNEL assay; assay type: functional, organism-based
[12] = Induction of apoptosis in human QBC939 cells assessed as early apoptotic cells at 2 uM by annexin V-FITC and propidium iodide staining based flow cytometric analysis (reference value: 0.01 %); assay type: functional
[13] = Phototoxicity against human QBC939 cells assessed as reduction in cell viability irradiated with 4 J/cm2 of 650 nanometer laser light preincubated for 24 hrs in dark and measured after 24 hrs by MTT assay; assay type: functional, cell-based; settings: QBC939, light or radiation study
[14] = Induction of singlet oxygen generation in DMF solution irradiated with 650 nanometer laser light in every 1 min by ESR assay; assay type: functional
[15] = Drug uptake in human QBC939 cells at 4 uM by fluorescence spectrophotometer analysis; assay type: ADME, cell-based; settings: qbc939, 4 µM
[16] = Induction of apoptosis in human QBC939 cells assessed as necrotic cells at 2 uM in presence of 2J/cm2 light irradiation measured after 2 hrs by annexin V-FITC and propidium iodide staining based flow cytometric analysis (reference value: 0.02 %); assay type: functional
[17] = Absorption property of the compound in DMSO assessed as Q band maximum absorption wavelength by UV-visible spectrophotometric method; assay type: physicochemical
[18] = Induction of apoptosis in human QBC939 cells assessed as early apoptotic cells at 2 uM in presence of 2J/cm2 light irradiation measured after 24 hrs by annexin V-FITC and propidium iodide staining based flow cytometric analysis (reference value: 0.01 %); assay type: functional
[19] = Absorption property of the compound in DMF assessed as Q band log absorption coefficient by UV-visible spectrophotometric method; assay type: physicochemical
[20] = Induction of apoptosis in human QBC939 cells assessed as necrotic cells at 2 uM by annexin V-FITC and propidium iodide staining based flow cytometric analysis; assay type: functional
[21] = Absorption property of compound in poly-oxyethylene castor oil and PBS assessed as Q band maximum absorption wavelength by UV-visible spectrophotometric method; assay type: physicochemical; settings: buffer
[22] = Drug uptake in nude mouse xenografted with QBC939 cells assessed as drug level in tumor tissue at 1 mg/kg, iv measured after 8 hrs by fluorescence imaging assay; assay type: ADME, organism-based, Neoplasm; settings: in vivo
[23] = Emission property of compound in DMF assessed as Q band emission wavelength by […]; assay type: physicochemical
[24] = Emission property of compound in poly-oxyethylene castor oil and PBS assessed as Q band emission wavelength by […]; assay type: physicochemical; settings: buffer
[25] = Drug localization in mitochondria of human QBC939 cells at 4 uM incubated for 4 hrs in dark by mito-tracker green based confocal microscopic method; assay type: ADME; settings: qbc939, 4 h
[26] = Absorption property of the compound in DMSO assessed as Q band log absorption coefficient by UV-visible spectrophotometric method; assay type: physicochemical
[27] = Induction of apoptosis in human QBC939 cells assessed as viable cells at 2 uM in presence of 2J/cm2 light irradiation measured after 2 hrs by annexin V-FITC and propidium iodide staining based flow cytometric analysis (reference value: 99.6 %); assay type: functional; settings: QBC939, light or radiation study, read-out: Activity
[28] = Phototoxicity against human QBC939 cells assessed as reduction in cell viability irradiated with 2 J/cm2 of 650 nanometer laser light preincubated for 24 hrs in dark and measured after 24 hrs by MTT assay; assay type: functional, cell-based; settings: QBC939, light or radiation study
[29] = Induction of apoptosis in human QBC939 cells assessed as late apoptotic cells at 2 uM in presence of 2J/cm2 light irradiation measured after 24 hrs by annexin V-FITC and propidium iodide staining based flow cytometric analysis (reference value: 0.01 %); assay type: functional
[30] = Drug localization in nucleus of human QBC939 cells at 4 uM incubated for 4 hrs in dark by Hoechst 33342 based confocal microscopic method; assay type: ADME, subcellular; settings: qbc939, 4 h
[31] = Phototoxicity against human QBC939 cells assessed as reduction in cell viability irradiated with 1 J/cm2 of 650 nanometer laser light preincubated for 24 hrs in dark and measured after 24 hrs by MTT assay; assay type: functional, cell-based; settings: QBC939, light or radiation study
[32] = Drug uptake in nude mouse xenografted with QBC939 cells assessed as drug level in tumor tissue at 1 mg/kg, iv measured after 24 hrs by fluorescence imaging assay; assay type: ADME, organism-based, Neoplasm; settings: in vivo
[33] = Induction of apoptosis in human QBC939 cells assessed as necrotic cells at 2 uM in presence of 2J/cm2 light irradiation measured after 24 hrs by annexin V-FITC and propidium iodide staining based flow cytometric analysis (reference value: 0.02 %); assay type: functional
[34] = Phototoxicity in ICR mouse assessed as pathological changes 1 mg/kg, iv in presence of 10 mW/cm2 light irradiation for 10 mins at 1 day after drug challenge and measured after 1 day of light irradiation by H and E staining based microscopic analysis; assay type: organism-based; settings: in vivo, 48 h, time 2 day
[35] = Drug uptake in mouse assessed as drug level in plasma at 1 mg/kg, iv measured upto 24 hrs by fluorometric method; assay type: ADME, organism-based; settings: in vivo
[36] = Phototoxicity in ICR mouse assessed as neck skin weight at 1 mg/kg, iv followed by 10 mW/cm2 light irradiation for 10 mins at 1 day after drug challenge and measured after 1 day of light irradiation by H and E staining based microscopic analysis (reference value: 36.5 +/- 2.4 mg); assay type: organism-based; settings: in vivo, 48 h, time 2 day
[37] = system: QBC939; assay: Photodynamic antitumor activity against human QBC939 cells xenografted in BALB/c nude mouse assessed as decrease in tumor weight at 1 mg/kg, iv under dark condition measured after 13 days; assay type: functional, organism-based; settings: time 13.0 day
[38] = Dark toxicity in human QBC939 cells assessed as reduction in cell viability incubated under dark for 24 hrs measured after 24 hrs by MTT assay; assay type: cell-based; settings: read-out: TC50
[39] = Absorption property of the compound in DMF assessed as Q band maximum absorption wavelength by UV-visible spectrophotometric method; assay type: physicochemical
[40] = Induction of apoptosis in human QBC939 cells assessed as early apoptotic cells at 2 uM in presence of 2J/cm2 light irradiation measured after 2 hrs by annexin V-FITC and propidium iodide staining based flow cytometric analysis (reference value: 0.01 %); assay type: functional
[41] = Induction of apoptosis in human QBC939 cells assessed as viable cells at 2 uM in presence of 2J/cm2 light irradiation measured after 24 hrs by annexin V-FITC and propidium iodide staining based flow cytometric analysis (reference value: 99.6 %); assay type: functional; settings: QBC939, light or radiation study, read-out: Activity
[42] = Induction of apoptosis in human QBC939 cells assessed as late apoptotic cells at 2 uM in presence of 2J/cm2 light irradiation measured after 2 hrs by annexin V-FITC and propidium iodide staining based flow cytometric analysis (reference value: 0.01 %); assay type: functional
[43] = Phototoxicity in ICR mouse assessed as skin swelling at 1 mg/kg, iv followed by 10 mW/cm2 light irradiation for 10 mins at 1 day after drug challenge and measured after 1 day of light irradiation by H and E staining based microscopic analysis; assay type: organism-based; settings: in vivo, 48 h, time 2 day
[44] = Phototoxicity in ICR mouse assessed as dermal inflammation 1 mg/kg, iv in presence of 10 mW/cm2 light irradiation for 10 mins at 1 day after drug challenge and measured after 1 day of light irradiation by H and E staining based microscopic analysis; assay type: organism-based; settings: in vivo, 48 h, time 2 day
[45] = Phototoxicity in ICR mouse assessed as skin erythema at 1 mg/kg, iv followed by 10 mW/cm2 light irradiation for 10 mins at 1 day after drug challenge and measured after 1 day of light irradiation by H and E staining based microscopic analysis; assay type: organism-based; settings: in vivo, 48 h, time 2 day
[46] = Phototoxicity in ICR mouse assessed as ear swelling at 1 mg/kg, iv followed by 10 mW/cm2 light irradiation for 10 mins at 1 day after drug challenge and measured after 1 day of light irradiation by H and E staining based microscopic analysis; assay type: organism-based; settings: in vivo, 48 h, time 2 day

## COC(=O)C1(C(=O)NCCO)C2c3nc(c(-c4ccccc4)c4ccc([nH]4)c(-c4ccccc4)c4nc(c(-c5ccccc5)c5ccc([nH]5)c3-c3ccccc3)C=C4)C21 (configuration not stated)
[1]
  Activity: 13.2 mg
[2]
  viability at 2 µM: 95.1%
[3]
  Activity: 17%
[4]
  Activity: 35.3 mg
[5]
  Drug uptake: Active
[6]
  Activity: 2.32%
[7]
  Activity: Active
[8]
  Activity: 650 nm
[9]
  Activity: 3.34
[10]
  Activity: 114.9 mg
[11]
  Activity: Active
[12]
  Activity: 1.65%
[13]
  IC50: 1170 nM
[14]
  Activity: Active
[15]
  Drug uptake: Active
[16]
  Activity: 17.07%
[17]
  Activity: 654 nm
[18]
  Activity: 19.8%
[19]
  Activity: 4.03
[20]
  Activity: 0.96%
[21]
  Activity: 650 nm
[22]
  Drug uptake: Active
[23]
  Activity: 652 nm
[24]
  Activity: 655 nm
[25]
  Drug uptake: Active
[26]
  Activity: 4
[27]
  viability at 2 µM: 75.9%
[28]
  IC50: 1920 nM
[29]
  Activity: 44.9%
[30]
  Drug uptake: Not Active
[31]
  IC50: 3410 nM
[32]
  Drug uptake: Active
[33]
  Activity: 9.7%
[34]
  Activity: Non-Toxic
[35]
  Drug uptake: Active
[36]
  Activity: 38.1 mg
[37]
  Activity: inactive
[38]
  CC50 at 48 h: > 8000 nM
[39]
  Activity: 652 nm
[40]
  Activity: 2.1%
[41]
  viability at 2 µM: 25.6%
[42]
  Activity: 4.9%

## Oc1cccc(-c2c3nc(c(-c4cccc(O)c4)c4ccc([nH]4)c(-c4cccc(O)c4)c4nc(c(-c5cccc(O)c5)c5ccc2[nH]5)CC4)C=C3)c1 [TEMOPORFIN]
[43]
  Activity: Toxic
[1]
  Activity: 15.6 mg
[3]
  Activity: 35%
[4]
  Activity: 39.2 mg
[44]
  Activity: Toxic
[10]
  Activity: 120.4 mg
[11]
  Activity: Active
[13]
  IC50: 630 nM
[28]
  IC50: 1460 nM
[31]
  IC50: 2960 nM
[45]
  Activity: Toxic
[46]
  Activity: Toxic
[36]
  Activity: 42.7 mg
[37]
  Activity: inactive
[38]
  CC50 at 48 h: 6080 nM
